Experimental data reported in patent US20230141718A1, “METHODS OF TREATING GLIOBLASTOMA” (CELGENE QUANTICEL RESEARCH, INC., priority 2021, published 2023).
Values joined by “and” are separate entries in the source; they are usually repeats but may differ in a detail not shown here. Equal values may be shown once. Read-outs that look alike come from different tables or passages of the source.

Assays:
Format in all cases: in vivo, human
[1] = Plasma pharmacokinetics of Compound A, CC-90010-GBM-001 study
Text: The primary objectives of the study in this example were determination of tumor tissue concentration and plasma pharmacokinetics (PK) of Compound A. The secondary and exploratory objectives included safety, antitumor activity, cerebrospinal fluid concentration, and pharmacodynamics (PD).
(§1) The study described in this example (CC-90010-GBM-001 study/NCT04047303) enrolled patients with progressive or recurrent astrocytoma or recurrent glioblastoma who have failed radiation and chemotherapy, and who are candidates for surgical tumor resection as part of their salvage regimen.
(§2) Patients were treated with Compound A at 30 mg daily on Day 1 to Day 4 prior to undergoing indicated tumor resection and to maintain platelet count above the minimum of […] recommended for surgery (Part A, preoperative treatment). Following recovery from surgery and a minimum of 4 weeks from the first dose of Compound A, subjects who were fit to continue were treated with Compound A at 45 mg on a 4 days on/24 days off schedule (180 mg per 28-day cycle). Maintenance treatment continued until disease progression, unacceptable toxicity, or withdrawal of consent.
The blood PK, blood PD, tumor PK and tumor PD data were available for 20, 12, 20, and 11 patients, respectively.

[2] = tested on: progressive or recurrent astrocytoma or recurrent glioblastoma; assay: Antitumor response per RANO and PFS, CC-90010-GBM-001
Text: The Response Assessment in Neuro-Oncology criteria (RANO) is used to assess response to first-line treatment of glioblastoma. See, Leao, D. J. et al., American Journal of Neuroradiology 2019, 1-11. The RANO criteria divides response into four types of response based on imaging (MRI) and clinical features: (1) complete response (CR); (2) partial response (PR); (3) stable disease (SD); and (4) progression. For this assessment, a measurable disease is defined as bidimensional contrast-enhancing lesions with clearly defined margins, with 2 perpendicular diameters of at least 10 mm, visible on ≥2 axial slices. The nonmeasurable disease is defined as either unidimensional measurable lesions, masses with margins not clearly defined as frequently noted in the surgical margins, or lesions with maximal perpendicular diameters of <10 mm.
as §1, §2

[3] = Plasma pharmacokinetics of Compound A, CC-90010-GBM-002; parameters: AUC / AUC(0-inf): concentration or dose not given beside the values; conditions: for Cmax / AUC / AUC(0-inf): geometric mean; for tmax: median; for AUC: read-out: AUC24
Text: The primary objectives of the study in this example were to establish the safety, maximum tolerated dose (MTD), and recommended phase 2 dose (RP2D) of Compound A. The preliminary efficacy, pharmacokinetics, and pharmacodynamics were also investigated.
The study described in this example (CC-90010-GBM-002/NCT04324840) is a phase 1B dose-finding study investigating standard of care of Compound A in combination with TMZ with or without radiotherapy (RT) in subjects with newly diagnosed GBM. Part A of the study is escalating the oral doses of Compound A in combination with adjuvant TMZ to estimate the MTD and/or the RP2D of Compound A as adjuvant therapy and escalating the oral doses of Compound A in combination with concomitant TMZ+radiotherapy (RT) to estimate the MTD and/or the RP2D of Compound A as concomitant therapy. Part B of the study is the safety and efficacy of Compound A administered at or below the MTD determined for the adjuvant therapy (AT) and concomitant therapy (CT).
For adjuvant therapy, Compound A and TMZ was administered for 6 cycles, then Compound A as a monotherapy was administered in 28-day cycles until disease progression, start of a new anticancer therapy, or withdrawal of consent or physician's decision. For adjuvant therapy, Compound A was administered at 15, 30, and 45 mg 4 days on/24 days off and TMZ was administered at 150 or 200 mg/m^2 QD Days 1-5, followed by Compound A at 45 mg 4 days on/24 days off. For adjuvant therapy, part B, Compound A was administered at RP2D and TMZ was administered at 150 or 200 mg/m^2, followed by Compound A at 45 mg 4 days on/24 days off.
For concomitant therapy, Compound A, TMZ, and RT were administered for 6 weeks, then 4-week break, followed by adjuvant Compound A and TMZ for 6 cycles then Compound A monotherapy in 28-day cycles until disease progression, start of a new anticancer therapy, withdrawal of consent or physician's decision. For concomitant therapy, part A, Compound A was administered at 15 mg or 30 mg QD Days 1-4 (weeks 1,5), TMZ was administered at 75 mg/m^2/day QD, and RT was administered at 2 Gy QD×5 days/week, for 42 days. This was then followed by a break in treatment therapy, e.g., from 1 to up to 4 weeks. Thereafter, adjuvant therapy was initiated by administering Compound A at 30 mg or 45 mg and TMZ at 150 or 200 mg/m^2 QD Days 1-5 of a 28-day cycle. Adjuvant therapy cycles were repeated from 2 to 6 times. After adjuvant therapy, was a monotherapy treatment. Monotherapy comprised administering Compound A at 45 mg 4 days on/24 days off.
Data presented as geometric mean (geometric CV %) for AUC and Cmax, mean (SD) for t1/2, and median (range) for tmax. AI AUC, accumulation index ratio of exposure measured at Day 4 to that after Day 1; AI Cmax, accumulation index ratio of maximum observed concentration at Day 4 to that after Day 1; AUC24, area under the concentration-time curve within a 24-hour dosing interval; Cmax, maximum observed concentration; NA, not applicable; t1/2, apparent terminal phase half-life.

[4] = human, plasma, oral, LD, Part A
[5] = human, plasma, oral, LD, Part B

## Cn1cc(-c2cc(S(C)(=O)=O)ccc2OCC2CC2)c2ccccc2c1=O [Compound A, 4-[2-(cyclopropylmethoxy)-5-methylsulfonylphenyl]-2-methylisoquinolin-1-one]
[1]; C1D1, 30 mg daily
  GM AUC from 0 to 24 hours (AUC0-24): 5083 ng·h/mL
[1]; C1D4
  Median tmax: 1.9 h
  mean t1/2: 46 h
[1]; C1D4, 30 mg daily
  GM AUC0-24: 11,250 ng h/mL
[1]; Day 4
  geometric mean peak plasma concentration: 1.90 µM
  median time to peak concentration: 1.75 h
[1]; cycle 1, day 1 (C1D1), 30 mg daily
  geometric mean (GM) Cmax: 392 ng/mL
[1]; cycle 1, day 4 (C1D4), 30 mg daily
  GM Cmax: 720 ng/mL
[2]; 17 evaluable patients
  PD per RANO criteria: 59%
  stable disease per RANO criteria: 41%
[2]; IDH wild-type disease, 95% CI 1.4-3.6
  median PFS: 3.0 months
[2]; IDH wild-type disease, 95% CI 2.7-40.4
  6-month PFS rate: 16.3%
[2]; IDH-mutant disease
  6-month PFS rate: 0%
[2]; IDH-mutant disease, 95% CI 0.4-1.9
  median PFS: 1.2 months
[2]; all evaluable
  Six month progression-free survival: 12%
[2]; all evaluable, 95% CI 1.4-3.3
  Median progression-free survival (PFS): 1.9 months
[3]; 15, 30, 45 mg with TMZ
  Exposure versus dose: increased proportionally with dose
[3]; D1, GBM-002 (Part A) (n = 6)
  Cmax: 306 ng/mL
[3]; D1, Part A
  tmax: 2.0 h
[3]; Day 4
  Day 4 time to peak Compound A concentration: 0.5 to 2.0 h and 0.5 to 4.0 h
[3]; LD, GBM-002 (Part A) (n = 6)
  Cmax: 822 ng/mL
[3]; LD, Part A, mean
  T1/2: 68 h
[3]; LD, Part A
  tmax: 1.5 h
[3]; Part A
  AI AUC24 (accumulation index ratio, Day 4 to Day 1): 3.05
  AI Cmax (accumulation index ratio, Day 4 to Day 1): 2.69
[3]; Part B
  AI AUC24 (accumulation index ratio, Day 4 to Day 1): 2.61
  AI Cmax (accumulation index ratio, Day 4 to Day 1): 2.11
  effect of coadministration with RT and TMZ on Compound A PK: did not appear to impact Compound A PK
[3]; human, plasma, oral, D1, GBM-002 (Part B) (n = 17), read-out: Cmax
  Cmax: 350 ng/mL
[3]; human, plasma, oral, D1, Part A
  AUC: 4580 ng·h/mL
[3]; human, plasma, oral, D1, Part B
  AUC: 4890 ng·h/mL
[3]; human, plasma, oral, LD, GBM-002 (Part B) (n = 17), read-out: Cmax
  Cmax: 740 ng/mL
[3]; [4]
  AUC(0-inf): 49800 ng·h/mL
  AUC: 13900 ng·h/mL
[3]; [5]
  AUC(0-inf): 48700 ng·h/mL
  AUC: 12700 ng·h/mL
[3]; human, plasma, oral, LD, Part B, mean, read-out: T1/2 (converted)
  half-life: 58 h
[3]; human, plasma, oral, read-out: mean terminal half-life
  half-life: 60 to 70 h
